Test results as given in PubChem BioAssay AID463180 (University of Pittsburgh Molecular Library Screening Center, 2010).
Calls of active or inactive are those of the source. No rule for the calls is given here.

molecular target: Furin (Homo sapiens) (UniProt P09958); assay: furin substrate cleavage inhibition retest – biochemical, fluorescence intensity, confirmation (AID 463180); conditions: Recombinant furin, fluorogenic substrate cleavage, at 50 µM, hits give high values
Sequence (P09958 108-714 limits assumed): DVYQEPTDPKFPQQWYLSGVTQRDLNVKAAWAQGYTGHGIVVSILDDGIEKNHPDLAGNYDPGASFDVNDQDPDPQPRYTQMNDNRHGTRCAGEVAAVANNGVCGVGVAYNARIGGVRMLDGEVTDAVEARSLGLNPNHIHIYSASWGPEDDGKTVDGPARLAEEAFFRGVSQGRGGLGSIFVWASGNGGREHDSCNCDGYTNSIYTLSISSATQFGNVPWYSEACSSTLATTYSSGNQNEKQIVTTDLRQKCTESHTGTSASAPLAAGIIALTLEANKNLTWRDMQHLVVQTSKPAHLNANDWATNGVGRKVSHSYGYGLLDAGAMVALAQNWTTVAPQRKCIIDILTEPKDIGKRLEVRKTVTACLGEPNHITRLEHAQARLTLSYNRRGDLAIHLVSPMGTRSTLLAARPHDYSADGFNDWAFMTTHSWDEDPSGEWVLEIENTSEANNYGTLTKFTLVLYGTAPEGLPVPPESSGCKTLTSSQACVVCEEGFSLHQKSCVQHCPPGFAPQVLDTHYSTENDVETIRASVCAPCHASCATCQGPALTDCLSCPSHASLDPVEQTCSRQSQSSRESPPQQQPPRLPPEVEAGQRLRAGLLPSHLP

SMILES	inhibition
COc1cc(NC(=O)c2ccccc2)c(OC)cc1Cl	-9.8% (inactive)
Cc1cc(Cl)ccc1OCCCC(=O)N1CCOCC1	-18.9% (inactive)
O=C(CCN1C(=O)c2ccccc2C1=O)N(CCO)Cc1ccccc1	-16.7% (inactive)
CC1(C)CC(=O)C(/C=N/n2cnc3ccccc3c2=O)=C(O)C1	7.64% (inactive)
O=C(CN1C(=O)c2ccccc2C1=O)Nc1sc2c(c1C(=O)NCc1ccco1)CCCC2	-11.4% (inactive)
CC(=O)Nc1cc(-c2ccc(Cl)cc2)nn1-c1ccccc1	-20% (inactive)
N#CC1=C(N)NC(SCc2ccc(Br)cc2)=C(C#N)C12CCCCC2	-6.5% (inactive)
COC(=O)c1[nH]c2cc(OC)ccc2c1NC(=O)CCN1CCCCC1	-14.9% (inactive)
O=C(Cc1c[nH]c2ccccc12)N1CCc2ccccc21	-24.6% (inactive)
COC(=O)c1[nH]c2ccccc2c1NC(=O)CN1CCC(C(N)=O)(N2CCCCC2)CC1	-12.8% (inactive)
CSc1n[nH]c(NCc2ccc(C)cc2)n1	-16.7% (inactive)
CCCCCc1nnc(NC(=O)C2CCCO2)s1 (stereo not given)	-22.1% (inactive)
O=C(COC(=O)c1ccc[nH]c1=O)NCC1CCCO1 (stereo not given)	-31.2% (inactive)
CCCCCC(=O)N(CN1C(=O)CCC1=O)c1ccccc1	-20.9% (inactive)
COc1ccc(S(=O)(=O)NCCC(=O)NCc2ccc(F)cc2)cc1	-20.3% (inactive)
COC(=O)c1ccc(NC2(C#N)C(=O)Nc3ccccc32)cc1 (stereo not given)	-18.6% (inactive)
CCN1CCS/C1=C\C=C\C1=[N+](CC)CCS1	63.4%
CCSc1ccccc1C(=O)Nc1nncs1	-22.6% (inactive)
CCOC(=O)C(CC)Sc1nc2c(c(=O)[nH]c(=O)n2C)n1C/C=C(/C)Cl (stereo not given)	-19.2% (inactive)
CCOC(=O)C(CC)Sc1nnc(COc2ccc(C)cc2)n1-c1ccccc1 (stereo not given)	-0.94% (inactive)
Cc1cccc(/N=C/C2=C(O)CC(C)(C)CC2=O)n1	13.1%
O=C(C1Cc2ccccc2CN1S(=O)(=O)c1cccs1)N1CCCCC1 (stereo not given)	-7.18% (inactive)
COc1ccc(S(=O)(=O)Nc2cc(C(C)C)c(O)cc2C)cc1	-20.4% (inactive)

SMILES	inhibition
COc1ccccc1C(=O)NC(C)C(c1cccs1)N1CCOCC1 (stereo not given)	-25.9% (inactive)
CNc1nc(NCCOC23CC4CC(CC(C4)C2)C3)nc(OCC(F)(F)F)n1	-19.7% (inactive)
Cc1ccccc1-n1c(O)c(C=Nc2ccc(N(C)C)cc2)c(=O)[nH]c1=O	20.3%
Cc1ccc(SCCCCN2C(=O)NC(C)(C)C2=O)cc1	-8.35% (inactive)
NC(=O)c1ccccc1N/C=C/C(=O)c1ccc(F)cc1	-9.67% (inactive)
COc1nc(C)ccc1-c1noc(-c2ccccn2)n1	-16.6% (inactive)
Cn1ncc(Cl)c1C(=O)Nc1cccc(Cl)c1	-11% (inactive)
CCCCOc1ccc(-c2ncc(Cl)cn2)cc1	-14.4% (inactive)
O=C1C=C(c2ccc(Cl)cc2)OC2(CCCC2)O1	-10.7% (inactive)
CCOC(=O)c1cc(C)sc1/N=C/C1C(=O)CCCC1=O	-15.3% (inactive)
Cc1c(NC(=O)c2ccc(Cl)c(S(=O)(=O)N3CCOCC3)c2)c(=O)n(-c2ccccc2)n1C	-23.3% (inactive)
CCC(C)C(NC(=O)C1CCC(C)CC1)C(=O)NCc1cccnc1 (stereo not given)	-18.4% (inactive)
CCOC(=O)c1cc(CC)sc1/N=C/C1=C(O)CCCC1=O	-4.4% (inactive)
CCOC(=O)c1c(/N=C/C2=C(O)CCCC2=O)sc(C)c1C	-13.1% (inactive)
Cc1nc(SCc2ccc(O)c([N+](=O)[O-])c2)n[nH]1	0.762% (inactive)
COC(=O)C1C(=O)/C(=C/N(C)C)C(=O)CC1(C)C (stereo not given)	4.91% (inactive)
COc1ccc(NC(=O)Nc2ncn(Cc3cccc(C(F)(F)F)c3)n2)cc1OC	-15.8% (inactive)
CCC(Sc1ncccc1C(=O)O)C(=O)N1CCCC1 (stereo not given)	-20.2% (inactive)
CCCOc1ccc(C2NC(=O)NC2=O)cc1 (stereo not given)	-10.8% (inactive)
CN1CCN(c2ccccc2NC(=O)c2cccc(OCc3ccccc3)c2)CC1	-16% (inactive)
O=C(Nc1ccccc1)N(CCN1CCOCC1)Cc1ccccc1F	-13% (inactive)
COC(=O)COc1ccc(S(=O)(=O)NCC2CCCO2)cc1Cl (stereo not given)	-21.4% (inactive)
